The term IC50 denotes the concentration needed to halve the response being measured. The low end stands for higher potency, the high end for lower potency.

IC50 data for twelve compounds are collected here from US20260183275A1, “SUBSTITUTED QUINOLONE COMPOUNDS USEFUL AS INHIBITORS OF TLR9” (Bristol-Myers Squibb Company, priority 2022, published 2026).

Holding throughout (format): cell-based
In one assay the target is T1, human TLR9 (Homo sapiens, UniProt Q9NR96).
T1 construct: host or cells: HEK-Blue cells
T1 sequence (Q9NR96 26-1032): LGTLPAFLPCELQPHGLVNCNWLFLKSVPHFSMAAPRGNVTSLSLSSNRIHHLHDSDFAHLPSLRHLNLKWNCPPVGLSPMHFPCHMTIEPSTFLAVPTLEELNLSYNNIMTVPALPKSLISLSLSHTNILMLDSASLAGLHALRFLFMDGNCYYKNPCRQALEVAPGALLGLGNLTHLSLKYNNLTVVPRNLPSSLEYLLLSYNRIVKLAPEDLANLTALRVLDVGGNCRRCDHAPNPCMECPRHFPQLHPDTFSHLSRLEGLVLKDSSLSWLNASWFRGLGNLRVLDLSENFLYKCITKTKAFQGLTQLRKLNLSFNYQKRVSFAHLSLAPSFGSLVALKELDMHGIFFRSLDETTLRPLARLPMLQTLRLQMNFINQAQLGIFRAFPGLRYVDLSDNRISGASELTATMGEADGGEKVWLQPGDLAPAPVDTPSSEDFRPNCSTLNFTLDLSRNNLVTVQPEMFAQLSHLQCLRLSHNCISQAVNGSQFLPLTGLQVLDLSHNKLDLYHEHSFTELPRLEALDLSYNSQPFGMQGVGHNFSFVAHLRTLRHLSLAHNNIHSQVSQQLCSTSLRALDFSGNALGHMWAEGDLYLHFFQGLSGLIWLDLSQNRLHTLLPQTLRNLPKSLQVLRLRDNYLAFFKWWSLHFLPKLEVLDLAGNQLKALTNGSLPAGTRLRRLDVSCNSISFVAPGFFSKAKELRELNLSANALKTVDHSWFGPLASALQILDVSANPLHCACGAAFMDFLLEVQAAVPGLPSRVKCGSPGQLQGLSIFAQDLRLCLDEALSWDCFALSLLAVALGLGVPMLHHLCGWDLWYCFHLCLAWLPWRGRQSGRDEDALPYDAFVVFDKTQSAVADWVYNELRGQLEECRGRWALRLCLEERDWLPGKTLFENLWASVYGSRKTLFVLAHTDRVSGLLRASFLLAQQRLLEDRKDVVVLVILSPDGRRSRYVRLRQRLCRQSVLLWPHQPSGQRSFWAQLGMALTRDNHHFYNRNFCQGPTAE
As to the kind of experiment: TLR9 inhibition reporter assay (HEK-Blue cells, SEAP reporter). To be noted: HEK-Blue cells overexpressing human TLR9; stimulated with ODN2006 5 nM; SEAP read after 22 hour; dose range 0.05 nM-50 μM. A digest of the protocol:
(§1)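 HEK-Blue cells with NF-κB/AP-1-driven SEAP pre-treated 30 min with compounds (0.05 nM-50 μM), then stimulated with gardiquimod 7.5 μM (TLR7), R848 15.9 μM (TLR8) or ODN2006 5 nM (TLR9). SEAP read after 22 h at 37° C; % inhibition relative to agonist+DMSO and reference-inhibitor wells.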
In general terms: A reporter such as luciferase makes a cellular process visible.

The next assay deals with T2, human TLR7 (Homo sapiens, UniProt Q9NYK1).
T2 construct: host or cells: HEK-Blue cells
T2 sequence (Q9NYK1 27-1049): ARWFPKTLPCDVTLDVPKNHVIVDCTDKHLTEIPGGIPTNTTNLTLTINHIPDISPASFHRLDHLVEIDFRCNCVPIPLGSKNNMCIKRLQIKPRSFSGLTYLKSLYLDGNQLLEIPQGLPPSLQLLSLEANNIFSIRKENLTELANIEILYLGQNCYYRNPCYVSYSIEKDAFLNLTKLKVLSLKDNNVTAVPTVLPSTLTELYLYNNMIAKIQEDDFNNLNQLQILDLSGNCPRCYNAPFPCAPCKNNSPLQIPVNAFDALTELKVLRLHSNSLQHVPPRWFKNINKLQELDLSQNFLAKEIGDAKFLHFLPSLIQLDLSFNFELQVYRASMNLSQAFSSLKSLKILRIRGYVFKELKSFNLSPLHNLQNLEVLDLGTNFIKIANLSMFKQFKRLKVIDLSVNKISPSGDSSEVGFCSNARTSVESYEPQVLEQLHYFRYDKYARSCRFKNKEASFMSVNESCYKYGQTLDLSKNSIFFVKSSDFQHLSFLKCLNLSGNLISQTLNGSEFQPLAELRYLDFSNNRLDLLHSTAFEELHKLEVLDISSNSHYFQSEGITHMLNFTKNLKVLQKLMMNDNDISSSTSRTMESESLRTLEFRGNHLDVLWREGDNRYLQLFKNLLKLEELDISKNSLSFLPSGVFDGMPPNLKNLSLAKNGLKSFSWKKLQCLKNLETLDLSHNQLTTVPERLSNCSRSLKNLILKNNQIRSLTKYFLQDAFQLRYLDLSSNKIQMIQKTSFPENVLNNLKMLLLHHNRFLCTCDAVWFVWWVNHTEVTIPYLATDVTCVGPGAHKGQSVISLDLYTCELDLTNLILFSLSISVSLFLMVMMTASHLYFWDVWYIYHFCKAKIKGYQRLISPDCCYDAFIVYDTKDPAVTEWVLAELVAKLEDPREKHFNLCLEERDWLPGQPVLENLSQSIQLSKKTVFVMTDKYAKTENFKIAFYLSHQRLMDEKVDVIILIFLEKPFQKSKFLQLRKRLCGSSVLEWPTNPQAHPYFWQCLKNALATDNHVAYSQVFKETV
Put plainly: TLR7 inhibition reporter assay (HEK-Blue cells, SEAP reporter). The conditions noted are these: HEK-Blue cells overexpressing human TLR7; stimulated with gardiquimod 7.5 μM; SEAP read after 22 hour; dose range 0.05 nM-50 μM. In outline:
as §1

The next assay addresses T3, human TLR8 (Homo sapiens, UniProt Q9NR97).
T3 construct: host or cells: HEK-Blue cells
T3 sequence (Q9NR97 27-1041): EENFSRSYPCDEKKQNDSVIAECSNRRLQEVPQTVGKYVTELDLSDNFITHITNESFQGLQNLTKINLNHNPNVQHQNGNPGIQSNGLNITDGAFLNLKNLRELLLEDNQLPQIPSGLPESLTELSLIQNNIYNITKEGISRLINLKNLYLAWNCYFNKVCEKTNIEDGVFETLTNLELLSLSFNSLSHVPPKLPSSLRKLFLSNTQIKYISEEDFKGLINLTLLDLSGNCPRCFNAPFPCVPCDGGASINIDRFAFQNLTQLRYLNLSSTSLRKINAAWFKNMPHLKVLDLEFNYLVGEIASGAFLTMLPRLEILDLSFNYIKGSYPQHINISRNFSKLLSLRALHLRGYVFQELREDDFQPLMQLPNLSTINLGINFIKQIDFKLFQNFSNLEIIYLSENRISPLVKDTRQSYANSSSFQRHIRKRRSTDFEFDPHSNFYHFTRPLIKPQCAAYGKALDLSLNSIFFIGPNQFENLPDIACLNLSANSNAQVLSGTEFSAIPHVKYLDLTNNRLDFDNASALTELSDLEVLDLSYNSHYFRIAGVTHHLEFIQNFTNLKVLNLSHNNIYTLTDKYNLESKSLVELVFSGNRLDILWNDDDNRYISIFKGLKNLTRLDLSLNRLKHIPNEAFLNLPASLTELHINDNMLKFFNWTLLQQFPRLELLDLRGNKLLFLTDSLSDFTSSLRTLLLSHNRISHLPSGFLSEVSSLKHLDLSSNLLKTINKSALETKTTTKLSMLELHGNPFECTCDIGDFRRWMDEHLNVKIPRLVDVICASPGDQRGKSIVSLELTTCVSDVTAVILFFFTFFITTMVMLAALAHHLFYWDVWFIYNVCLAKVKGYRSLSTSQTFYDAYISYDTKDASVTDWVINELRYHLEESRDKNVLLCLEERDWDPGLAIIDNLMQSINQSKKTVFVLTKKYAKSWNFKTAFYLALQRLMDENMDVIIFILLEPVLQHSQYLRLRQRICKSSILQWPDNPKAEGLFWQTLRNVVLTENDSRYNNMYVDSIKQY
As to the kind of experiment: TLR8 inhibition reporter assay (HEK-Blue cells, SEAP reporter). To be noted: HEK-Blue cells overexpressing human TLR8; stimulated with R848 15.9 μM; SEAP read after 22 hour; dose range 0.05 nM-50 μM. A digest of the protocol:
as §1

Each structure is given as a SMILES string.

Turning to `CC(C)N1CCC(c2ccc(-c3ccc4c(c3)cc(-c3ccc(S(C)(=O)=O)cc3)c(=O)n4C)cc2)CC1` [Example 68, 3-(4-methanesulfonylphenyl)-1-methyl-6-{4-[1-(propan-2-yl)piperidin-4-yl]phenyl}-1,2-dihydroquinolin-2-one], the IC50 against human TLR9 was found to be 70 nM; against human TLR7, 7960 nM; on human TLR8, 475 nM.
Regarding `CN1CCC(c2ccc(-c3ccc4[nH]c(=O)c(-c5ccc(S(C)(=O)=O)cc5)cc4c3)cc2)CC1` [Example 76, 3-(4-methanesulfonylphenyl)-6-[4-(1-methylpiperidin-4-yl)phenyl]-1,2-dihydroquinolin-2-one], the IC50 against human TLR9 was 261 nM; against human TLR7 it was 2030 nM; against human TLR8, 9850 nM.
With `CC(C)N1CCN(c2ccc(-c3ccc4[nH]c(=O)c(-c5ccc(S(N)(=O)=O)cc5)cc4c3)cc2)CC1` [Example 11, 4-(2-oxo-6-{4-[4-(propan-2-yl)piperazin-1-yl]phenyl}-1,2-dihydroquinolin-3-yl) benzene-1-sulfonamide], the IC50 is 119 nM against human TLR9, no less than 50000 nM against human TLR7 and 2050 nM against human TLR8.
Consider `CC(C)N1CCC(c2ccc(-c3ccc4c(c3)cc(-c3ccc(S(C)(=O)=O)cc3)c(=O)n4CCO)cc2)CC1` [Example 72, 1-(2-hydroxyethyl)-3-(4-methanesulfonylphenyl)-6-{4-[1-(propan-2-yl)piperidin-4-yl]phenyl}-1,2-dihydroquinolin-2-one], for which the IC50 was 154 nM against human TLR9, 3580 nM on human TLR7 and 21700 nM against human TLR8.
The corresponding values for `CC(C)Cn1c(=O)c(-c2ccc(S(C)(=O)=O)cc2)cc2cc(-c3ccc(C4CCN(C(C)C)CC4)cc3)ccc21` [Example 85, 3-(4-methanesulfonylphenyl)-1-(2-methylpropyl)-6-{4-[1-(propan-2-yl)piperidin-4-yl]phenyl}-1,2-dihydroquinolin-2-one] are 400 nM, 14600 nM and 26300 nM.
As for `CC(C)N1CCN(c2ccc(-c3ccc4[nH]c(=O)c(-c5ccc(C(=O)N(C)C)cc5)cc4c3)cc2)CC1` [Example 60, N,N-dimethyl-4-(2-oxo-6-{4-[4-(propan-2-yl)piperazin-1-yl]phenyl}-1,2-dihydroquinolin-3-yl)benzamide], the IC50 against human TLR9 was 736 nM; on human TLR7, no less than 50000 nM; against human TLR8, no less than 50000 nM.
Consider `CC(C)N1CCN(c2ccc(-c3ccc4[nH]c(=O)c(-c5ccccc5Cl)cc4c3)cc2)CC1` [Example 44, 3-(2-chlorophenyl)-6-{4-[4-(propan-2-yl)piperazin-1-yl]phenyl}-1,2-dihydroquinolin-2-one], for which the IC50 at human TLR9 was 701 nM; against human TLR7, 5610 nM; against human TLR8 it was no less than 50000 nM.
The matching figures for `CCc1c(-c2ccc(OC)c(OC)c2)c(=O)[nH]c2ccc(C3CCN(C4CCN(C(C)C)CC4)CC3)cc12` [Example 63, 3-(3,4-dimethoxyphenyl)-4-ethyl-6-[1′-(propan-2-yl)-[1,4′-bipiperidine]-4-yl]-1,2-dihydroquinolin-2-one]: 27 nM, 2810 nM and 11000 nM.
In the case of `CC(C)N1CCN(c2ccc(-c3ccc4[nH]c(=O)c(-c5ccncc5)cc4c3)cc2)CC1` [Example 17, 6-{4-[4-(propan-2-yl)piperazin-1-yl]phenyl}-3-(pyridin-4-yl)-1,2-dihydroquinolin-2-one], the IC50 is 171 nM against human TLR9, 338 nM against human TLR7 and 949 nM against human TLR8.
With `CCc1c(-c2ccc(S(C)(=O)=O)cc2)c(=O)n(C)c2ccc(-c3ccc(N4CCN(C(C)C)CC4)cc3)cc12` [Example 77, 4-ethyl-3-(4-methanesulfonylphenyl)-1-methyl-6-{4-[4-(propan-2-yl)piperazin-1-yl]phenyl}-1,2-dihydroquinolin-2-one], the IC50 amounted to 267 nM at human TLR9, 10200 nM against human TLR7 and 361 nM on human TLR8.
The matching figures for `CN1CCC(c2ccc3[nH]c(=O)c(-c4ccc(S(C)(=O)=O)cc4)cc3c2)CC1` [Example 97, 3-(4-methanesulfonylphenyl)-6-(1-methylpiperidin-4-yl)-1,2-dihydroquinolin-2-one]: 960 nM, 2510 nM and 20100 nM.
Take `CN1CCC(c2ccc(-c3ccc4[nH]c(=O)c(-c5ccc(NS(C)(=O)=O)cc5)cc4c3)cc2)CC1` [Example 70, N-(4-{6-[4-(1-methylpiperidin-4-yl)phenyl]-2-oxo-1,2-dihydroquinolin-3-yl}phenyl)methanesulfonamide]: the figures for the IC50 on human TLR9, on human TLR7 and against human TLR8 were 78 nM, 204 nM and no less than 50000 nM, respectively.
